One experiment concerns the target Genome polyprotein (dengue virus type 2, UniProt P29990). Put plainly: Dengue-2 NS5 methyltransferase inhibitors, primary screen, biochemical, confirmation dose response (AID 588689). It is filed as functional.
Experiment [1] concerns the target Beta-2 adrenergic receptor (Homo sapiens, UniProt P07550). Put plainly: beta2AR agonists driving receptor internalization, dose response, cell-based, FAP fluorogen, flow cytometry, cherry pick 1 (AID 588763). It counts as functional. For orientation: A flow cytometer gives signals particle by particle.
For experiment [2], the system named is BJ. The experiment can be described thus: cells. It is filed as functional, cell-based. The following applies: Homo sapiens.
Experiment [3] deals with Vero. Put plainly: cells. It is filed as functional. The following applies: Chlorocebus sabaeus.
Experiment [4] has as its system BJ. Put plainly: cytotoxicity toward BJ-TERT fibroblasts, dose response, cell-based, RAS-independent, luminescence (AID 1933). It counts as functional. Conditions: Homo sapiens.
The nature of experiment [5]: cytotoxicity toward DRD oncogenic fibroblasts, dose response, cell-based, non-viral oncogenic, luminescence (AID 1934). It counts as functional. The following applies: Homo sapiens.
Experiment [6] concerns Vero. The experiment can be described thus: cells. It is filed as functional, cell-based. Conditions: Chlorocebus sabaeus.
In experiment [7] the test system is BJ. The experiment can be described thus: cytotoxicity toward BJ-TERT-LT-ST fibroblasts, dose response, cell-based, RAS-independent, luminescence (AID 1935).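 Note: BJ fibroblasts immortalized with TERT plus LT and ST oncogenes.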 It counts as functional. Conditions: Homo sapiens.
A further experiment has as its system INS1. Put plainly: beta cell apoptosis inhibitors, cytokine rescue, dose response, luminescence, retest (AID 449756).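 Note: cell death triggered by IL-1 beta plus TNF-alpha plus IFN-gamma mixture; protective hits raise ATP signal compared with cytokine alone wells.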 The following applies: Rattus norvegicus. It is filed as functional, cell-based.
Experiment [8] deals with T1, High affinity choline transporter 1 (Homo sapiens, UniProt Q9GZV3).
T1 sequence (Q9GZV3 whole entry): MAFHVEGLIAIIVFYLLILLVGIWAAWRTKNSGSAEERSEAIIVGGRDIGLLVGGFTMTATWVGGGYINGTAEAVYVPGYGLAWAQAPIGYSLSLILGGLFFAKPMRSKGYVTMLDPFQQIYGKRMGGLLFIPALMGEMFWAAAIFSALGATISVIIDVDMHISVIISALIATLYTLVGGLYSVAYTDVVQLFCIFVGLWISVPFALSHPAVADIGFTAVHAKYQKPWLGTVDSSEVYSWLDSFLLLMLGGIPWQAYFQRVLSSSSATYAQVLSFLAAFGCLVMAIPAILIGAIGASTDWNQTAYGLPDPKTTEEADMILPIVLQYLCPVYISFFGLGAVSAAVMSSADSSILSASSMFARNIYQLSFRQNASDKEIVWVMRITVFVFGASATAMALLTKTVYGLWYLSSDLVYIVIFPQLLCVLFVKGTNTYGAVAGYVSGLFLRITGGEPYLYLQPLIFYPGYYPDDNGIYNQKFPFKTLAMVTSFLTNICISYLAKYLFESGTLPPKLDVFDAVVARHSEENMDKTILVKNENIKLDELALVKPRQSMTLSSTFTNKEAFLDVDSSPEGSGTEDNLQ
Put plainly: CHT inhibitors, dose response, cell-based, 5-point CRC, membrane potential dye (AID 504840). It is filed as functional.

Experiment [9] can be described thus: C. albicans growth with fluconazole, confirmation, fluorescence, retest (AID 2467). It is filed as functional, cell-based.
The nature of experiment [10]: NIH-3T3 fibroblast cytotoxicity, dose response, cytotoxicity control, cell-based, fluorescence, Alamar Blue, secondary assay (AID 2327).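 Note: NIH-3T3 mouse fibroblasts cultured with fluconazole at 8 µg/mL.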 It is filed as functional. For orientation: Resazurin is reduced to fluorescent resorufin, in cell work by metabolically active cells.
The target of a further experiment is T2, Cytochrome P450 1A2 (Homo sapiens, UniProt P05177).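 Note: PubChem cytochrome P450 panel assay, CYP1A2 panel member.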
T2 sequence (P05177 whole entry): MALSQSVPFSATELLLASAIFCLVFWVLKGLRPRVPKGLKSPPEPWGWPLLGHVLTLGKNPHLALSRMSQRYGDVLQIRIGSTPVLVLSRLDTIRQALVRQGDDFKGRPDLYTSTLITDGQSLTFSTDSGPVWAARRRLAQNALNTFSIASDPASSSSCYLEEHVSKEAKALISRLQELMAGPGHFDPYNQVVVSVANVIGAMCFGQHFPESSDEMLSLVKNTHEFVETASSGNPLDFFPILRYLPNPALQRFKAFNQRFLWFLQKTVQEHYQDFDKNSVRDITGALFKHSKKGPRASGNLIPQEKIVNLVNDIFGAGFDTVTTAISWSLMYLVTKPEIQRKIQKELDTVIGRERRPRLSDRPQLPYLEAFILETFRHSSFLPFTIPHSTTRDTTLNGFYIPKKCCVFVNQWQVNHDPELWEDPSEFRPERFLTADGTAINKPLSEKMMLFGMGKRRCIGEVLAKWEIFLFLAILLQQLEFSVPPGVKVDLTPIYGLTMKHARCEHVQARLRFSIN

The next experiment concerns the target Cytochrome P450 2C19 (Homo sapiens, UniProt P33261). Put plainly: Cytochrome panel assay with activity outcomes. Panel member name: p450-cyp2c19 Compounds with AC50 equal or less than 10 uM are considered active. It counts as functional. Conditions: read-out: AC50.
Another experiment has as its target T3, Coagulation factor XII (Homo sapiens, UniProt P00748).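 Note: activated factor XIIa alpha cleaving a fluorogenic AMC peptide substrate; inhibitor potency from loss of enzyme activity.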
T3 sequence (P00748 whole entry): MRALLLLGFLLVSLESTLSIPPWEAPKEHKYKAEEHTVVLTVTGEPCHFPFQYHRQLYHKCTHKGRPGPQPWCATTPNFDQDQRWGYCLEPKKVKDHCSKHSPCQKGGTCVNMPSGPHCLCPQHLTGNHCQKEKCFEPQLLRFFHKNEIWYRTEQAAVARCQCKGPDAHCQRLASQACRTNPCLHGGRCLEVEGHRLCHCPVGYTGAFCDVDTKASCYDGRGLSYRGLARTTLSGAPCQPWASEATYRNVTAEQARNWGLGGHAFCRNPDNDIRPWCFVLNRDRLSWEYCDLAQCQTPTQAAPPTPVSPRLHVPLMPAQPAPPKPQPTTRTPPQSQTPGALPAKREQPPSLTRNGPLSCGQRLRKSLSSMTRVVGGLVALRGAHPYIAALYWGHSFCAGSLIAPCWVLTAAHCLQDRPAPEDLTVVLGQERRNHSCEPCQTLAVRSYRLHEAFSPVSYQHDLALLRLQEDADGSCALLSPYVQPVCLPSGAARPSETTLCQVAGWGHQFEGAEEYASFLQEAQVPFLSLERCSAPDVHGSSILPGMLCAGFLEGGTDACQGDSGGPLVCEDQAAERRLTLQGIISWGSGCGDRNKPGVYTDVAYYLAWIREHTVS
It is filed as functional.

Experiment [11] is described as follows: inhibitors of firefly luciferase expression or activity, dose response, H4 neuroglioma cells, luminescence (AID 1990). It counts as functional, cell-based.
Experiment [12] in a line: HEp-2 cell cytotoxicity, dose response, cytotoxicity control for RSV inhibitor project, HTS (AID 2410). It counts as functional. Conditions: human respiratory syncytial virus.
Experiment [13] in a line: Luminescence Cell-Based Dose Response HTS to Identify Inhibitors of 5'UTR Stem-Loop Driven Prion Protein mRNA Translation in H4 Neuroglioblastoma Cells. [Related pubchem assays: 1827 (Project Summary), 1813 (Primary HTS)]. It counts as functional.
Experiment [14] can be described thus: inhibitors of SNCA 5'UTR-driven reporter translation, confirmation, H4 neuroglioma cells, luminescence (AID 1988). It is filed as functional, cell-based.
In experiment [15] the target is T4, Calpain-2 catalytic subunit (Sus scrofa, UniProt P43367).
T4 sequence (P43367 whole entry): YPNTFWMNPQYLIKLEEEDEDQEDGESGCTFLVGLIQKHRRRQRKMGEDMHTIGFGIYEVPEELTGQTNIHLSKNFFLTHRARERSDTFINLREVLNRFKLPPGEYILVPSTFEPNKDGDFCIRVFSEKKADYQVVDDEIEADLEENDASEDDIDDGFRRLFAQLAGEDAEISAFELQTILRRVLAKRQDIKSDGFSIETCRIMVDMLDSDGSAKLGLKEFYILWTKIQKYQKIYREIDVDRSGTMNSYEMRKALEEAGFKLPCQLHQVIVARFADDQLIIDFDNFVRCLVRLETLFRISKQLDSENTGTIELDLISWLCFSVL
The experiment can be described thus: pig calpain II inhibitor potency, dose response, biochemical, fluorogenic peptide substrate (AID 1420). It counts as functional.

Experiment [16] has as its target T5, Carboxy-terminal domain RNA polymerase II polypeptide A small phosphatase 1 (Homo sapiens, UniProt Q9GZU7).
T5 sequence (Q9GZU7 whole entry): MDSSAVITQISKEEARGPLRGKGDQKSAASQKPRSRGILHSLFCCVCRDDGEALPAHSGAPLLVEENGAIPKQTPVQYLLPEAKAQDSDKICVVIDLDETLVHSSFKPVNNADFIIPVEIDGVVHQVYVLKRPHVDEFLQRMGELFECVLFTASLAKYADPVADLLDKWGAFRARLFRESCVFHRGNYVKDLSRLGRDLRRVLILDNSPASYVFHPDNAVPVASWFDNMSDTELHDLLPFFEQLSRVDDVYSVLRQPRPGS
Put plainly: inhibitors of CTDSP1, concentration-response testing, biochemical assay, absorbance-based, actives from ultra-high-throughput screening (AID 540297). It is filed as functional.

Calls of active or inactive are those of the source.

Chain of Beta-2 adrenergic receptor (P07550 whole entry): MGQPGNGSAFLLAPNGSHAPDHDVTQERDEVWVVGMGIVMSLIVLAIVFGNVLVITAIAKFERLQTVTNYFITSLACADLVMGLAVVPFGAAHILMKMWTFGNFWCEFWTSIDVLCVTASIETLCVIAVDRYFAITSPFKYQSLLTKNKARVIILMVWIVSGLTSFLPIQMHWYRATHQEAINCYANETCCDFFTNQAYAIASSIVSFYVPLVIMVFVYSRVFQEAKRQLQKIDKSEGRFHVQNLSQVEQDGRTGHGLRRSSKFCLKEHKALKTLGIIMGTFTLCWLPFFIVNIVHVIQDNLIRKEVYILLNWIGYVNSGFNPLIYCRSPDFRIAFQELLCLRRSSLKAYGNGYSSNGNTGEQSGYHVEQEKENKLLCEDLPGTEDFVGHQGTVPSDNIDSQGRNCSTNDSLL
Chain of Cytochrome P450 2C19 (P33261 whole entry): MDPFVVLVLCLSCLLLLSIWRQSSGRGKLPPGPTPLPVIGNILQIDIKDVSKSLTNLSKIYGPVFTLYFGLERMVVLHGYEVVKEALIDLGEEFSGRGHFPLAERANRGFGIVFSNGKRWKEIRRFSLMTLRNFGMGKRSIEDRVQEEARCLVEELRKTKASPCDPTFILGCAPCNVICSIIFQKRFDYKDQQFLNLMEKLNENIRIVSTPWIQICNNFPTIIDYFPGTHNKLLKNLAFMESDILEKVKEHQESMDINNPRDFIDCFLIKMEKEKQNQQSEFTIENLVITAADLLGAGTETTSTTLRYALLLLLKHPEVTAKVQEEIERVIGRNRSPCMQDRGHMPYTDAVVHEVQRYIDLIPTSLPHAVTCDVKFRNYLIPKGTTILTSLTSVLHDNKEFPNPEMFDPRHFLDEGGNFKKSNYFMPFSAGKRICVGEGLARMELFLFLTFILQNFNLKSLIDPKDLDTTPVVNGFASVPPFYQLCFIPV
Chain of Genome polyprotein (P29990 2492-3391 limits assumed): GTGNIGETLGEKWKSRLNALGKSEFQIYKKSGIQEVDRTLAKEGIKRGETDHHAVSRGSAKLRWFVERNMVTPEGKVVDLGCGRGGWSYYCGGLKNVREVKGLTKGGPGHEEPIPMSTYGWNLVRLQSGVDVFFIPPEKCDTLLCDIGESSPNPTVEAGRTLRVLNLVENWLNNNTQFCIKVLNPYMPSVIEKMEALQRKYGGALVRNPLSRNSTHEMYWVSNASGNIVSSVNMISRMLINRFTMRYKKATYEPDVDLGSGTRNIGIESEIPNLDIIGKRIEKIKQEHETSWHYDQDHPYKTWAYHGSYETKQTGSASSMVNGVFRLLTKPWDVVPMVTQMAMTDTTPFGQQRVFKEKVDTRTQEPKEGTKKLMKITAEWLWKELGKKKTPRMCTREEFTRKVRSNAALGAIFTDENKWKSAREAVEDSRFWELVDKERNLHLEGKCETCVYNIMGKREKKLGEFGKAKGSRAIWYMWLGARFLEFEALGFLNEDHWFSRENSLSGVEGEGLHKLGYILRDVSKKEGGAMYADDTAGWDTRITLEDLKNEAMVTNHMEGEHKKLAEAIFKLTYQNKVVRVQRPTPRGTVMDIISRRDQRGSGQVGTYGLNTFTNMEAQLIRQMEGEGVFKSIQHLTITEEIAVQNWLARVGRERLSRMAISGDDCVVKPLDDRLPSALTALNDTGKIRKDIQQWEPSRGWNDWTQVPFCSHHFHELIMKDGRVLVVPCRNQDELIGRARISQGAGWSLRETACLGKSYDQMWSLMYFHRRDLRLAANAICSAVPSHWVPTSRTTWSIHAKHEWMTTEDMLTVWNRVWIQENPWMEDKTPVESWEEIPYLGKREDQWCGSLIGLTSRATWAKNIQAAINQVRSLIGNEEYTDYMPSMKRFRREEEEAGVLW

For the compound `COc1ccccc1N(O)C1CC(=O)N(c2ccc(F)cc2)C1=O` (stereo unspecified), on Genome polyprotein, the IC50 (in general, the concentration needed to halve the response being measured) was 62 µM (active).
For the compound `N#CC1=C(N)OC2=C(CCc3ccccc32)C1c1ccccc1` (stereo unspecified), the EC50 – broadly, the midpoint of the concentration-response curve – was 52.5 µM (inactive) in experiment [1]; 13.5 µM (active) with BJ [2]; 0.645 µM (inconclusive) with BJ [4]; 0.61 µM (active) in [5]; 0.689 µM (inconclusive) with BJ [7]. The CC50 (as a rule, the concentration giving 50% cytotoxicity) with Vero [3] was 0.17 µM (active). For the same compound, the IC50 with Vero [6] was > 25 µM (active).
Turning to `CCOC(=O)c1nc(NNC(=O)c2ccc([N+](=O)[O-])cc2)sc1C`, the AC50 (in general, the midpoint of the concentration-response curve, whichever way the signal moves) in the experiment on INS1 is 2.7 µM (active). For the same compound, in experiment [8], the IC50 was 9.91 µM (active). For the same compound, the EC50 in experiment [9] is 2.62 µM (active); in experiment [10] it was 30.9 µM (active).
Take `Cc1cc(OC(=O)c2ccc(Cl)cc2Cl)nc(C)n1`: the AC50 on Cytochrome P450 1A2 and on Cytochrome P450 2C19 was 28.2 µM (inconclusive) throughout. For the same compound, the IC50 on Coagulation factor XII is > 50 µM (inconclusive).
As for `O=C(C(c1ccccc1)c1ccccc1)N1CCN(c2ccccn2)CC1`, the EC50 in [1] was 0.0379 µM (active).
Consider `c1ccc(-c2csc3ncnc(NCC4COc5ccccc5O4)c23)cc1` (stereo unspecified), for which, in the experiment with INS1, the AC50 is 1.41 µM (active). Besides, at Coagulation factor XII, the IC50 is > 50 µM (inactive).
Consider `CCOc1ccccc1CNC(=O)c1cc2oc3ccccc3c2n1CC`, for which the EC50 in experiment [11] is > 120 µM (not active); in [13], 16.6 µM (active); in experiment [14] it was 14.9 µM (active). Further, the CC50 was 13.8 µM (active) in experiment [12] and > 25 µM (active) in the experiment with Vero [3]. Further, the IC50 in the experiment “cells” is 42.3 µM (active); in the experiment on Vero [6], > 12.5 µM (active).
Take `CCOc1ccc2nc(NC(=O)CSc3nc4cccnc4n3C)sc2c1`: in experiment [1], the EC50 was 2.44 µM (active).
The same measure, in the same setting: in the case of `O=C1CC(c2ccccc2)(c2ccccc2)c2ccccc21` it was 17.1 µM (inactive).
Turning to `C=CCNC(=S)N/N=C/c1ccc(C)c([N+](=O)[O-])c1`, the IC50 in experiment [15] was 3.49 µM (not active); on Coagulation factor XII, > 50 µM (inactive).
In the case of `C/C(=N\NC(=O)c1cccc(N/N=C(\C)c2ccccc2)c1)c1ccccc1`, the IC50 at Coagulation factor XII was > 50 µM (inactive).
Turning to `O=C(O)c1ccc(Oc2ccc(S(=O)(=O)c3ccc(C(=O)O)c(C(=O)O)c3)cc2)cc1`, the IC50 in experiment [16] is 6.97 µM (active).

For the origin of these results see ChEMBL document CHEMBL1201862, “PubChem BioAssay data set” (2004).
